One compound from patent US20100029546A1, “preparation method of galactosyl-has magnetic nanoparticles containing adriamycin” (priority 2004, published 2010) can be followed below.

Structures are written as SMILES.

Series [1] can be described thus: Drug release in vitro, dynamic dialysis. Type of series: physicochemical. Particulars: for Releasing (%): physiological saline. As to the method: Drug releases in vitro. According to dynamic dialysis, taking physiological saline as medium, 4 ml of the solution would be taken at certain time, and the same volume of the medium would be added in. The absorbency was measured to get the solving efficiency according to the standard curve formula. At the same time, the drug releasing experiment of adriamycin standard substance was done in order to observe the control release of the dialysis bag.

Series [2] concerns HepG2 cell. Briefly: Transwell invasion in vitro. Type of series: cell-based. From the text: The tumor cell's mobility and the invasion are close to each other. The tumor cell has the ability of amoeba type's movement, and it was confirmed by many people. Simultaneously, many overseas scholars reported that there is a direct ratio relation between the mobility and the invasion ability of the cancer cell. […] There is significant difference between any two groups. […] HSA-magnetic-adriamycin-nanoparticles group is different from galactosyl-HSA-adriamycin-nanoparticles group in it.

Series [3] deals with hepatocelular cell. Briefly: Apoptosis, quadrilateral zone in drug toxicity experiment. Type of series: cell-based.
For series [4], the system named is liver cancer. Briefly: Animal test of liver cancer therapy, hepatic artery injection. The series is classed as in vivo. From the text:
The result could be found in animal test: the group having NS hepatic artery injection lived 12.7 days on average; the group having lib-adriamycin hepatic artery injection lived 18.7 days on average; HSA-NP hepatic artery injection lived 20.7 days on average; the group having Gal-HAS-NP treatment lived 39.4 days on average.
Meanwhile, the aspiration of magnetic nanoparicles produced a longer functional diameter, which caused embolism in tumor blood vessels and lack of blood and oxygen in tumor in order to improve the sensitivity and effect of chemotherapeutics. Without adding magnetic field, the distribution rate of ADM-GHMN in tumorous and normal livers was 2.74, which also had some anti-tumor effects.

For series [5] the following is noted: rabbit.

For `COc1cccc2c1C(=O)c1c(O)c3c(c(O)c1C2=O)C[C@@](O)(C(=O)CO)C[C@@H]3O[C@H]1C[C@H](N)[C@H](O)[C@H](C)O1` [adriamycin], in series [1] (0.5 h), the “Releasing (%)” value was found to be 78.21%. The “Releasing (%)” value in series [1] (1 h) is 91.34%. The “Releasing (%)” value in series [1] (2 h) turned out to be 100%. Further, in series [1] (time not stated (Tab 6)), the “release / releasing efficiency” value came to 91.34%. Also, the “inhibition of invasive power” value in series [2] is on record as “can inhibit invasive power of the HepG2 cell”. For the same compound, in series [3], the “characteristic quadrilateral zone present” value is given as “characteristic quadrilateral zone”. The compound further had an average survival in series [4] (hepatic artery injection) of 18.7 days. The “tumor necrosis extent in pathological section” value in series [4] (in vivo) is recorded as “no badly necrosis but most light or medium leveled necrosis”. The C l in series [5] is recorded as 0.4233 ± 0.3223 mg/m/(mg/l). Besides, in series [5] (elimination phase), the T1/2β was determined as 883.2164 ± 2198.4914 m. Also, in series [5] (in vivo), the A was determined as 0.1362 ± 0.0185 mg · l − 1, the “AUC0→∞” value is 14.8163 ± 24.789 m · mg/l, the B was found to be 0.0109 ± 0.0028 mg · l − 1 and the Gamma is reported as 0.5463 ± 0.1663 m − 1. Moreover, in series [5] (in vivo), the T1/2α is 13.8169 ± 3.5845 m, the V c is given as 18.6816 ± 2.3663 (mg)/(mg/l) and the α was determined as 0.0523 ± 0.0161 m − 1.
